This is an account of results in patent US20210275581A1 (priority 2020, published 2021).

The test system of assay [1] is Salmonella enterica Serovar typhimurium LT2. Conditions: liquid culture, static growth, 37° C., 20 hours, 96 well microtiter plates.
Description: (§1) Salmonella enterica Serovar typhimurium LT2, Staphylococcus aureus USA300 LAC, and Streptococcus mutans Clark (ATCC) were used for the experiment. […] S. enterica and S. aureus were cultured in Muller Hinton media (Sigma-Aldrich) and S. mutans was cultured in Reinforced Clostridial Media (Oxoid).
(§2) Single bacterial colonies were inoculated into 2 mL of medium in 10 mL capacity culture tubes. Inoculated cultures of S. aureus and S. enterica were grown aerobically at 37° C. with shaking at 200 rpm for 24 hours. S. mutans was cultured statically for 48 hours. […] MICs were determined in cultures grown in 96 well microtiter plates. 100 μL of the standardized culture was sub-cultured into wells containing 100 μL of medium containing antimicrobial compound. Control wells containing 200 μL of media only or media compound were used to standardize the data. The microtiter plates were aerobically incubated statically at 37° C. for 20 hours. Culture optical densities (A600) were determined using Biotek® EPOCH 2 microplate reader.
(§3) The ability of Zn and (CP)2ZnCl4 to inhibit the growth of bacterial pathogens was examined. The minimal inhibitory concentrations of Zn and (CP)2ZnCl4 were determined in liquid culture after static growth.
The test system of assay [2] is Staphylococcus aureus USA300 LAC. To be noted: liquid culture, static growth, 37° C., 20 hours, 96 well microtiter plates.
Description: as §1, §2, §3
For assay [3], the system named is Streptococcus mutans Clark (ATCC). Conditions: for minimal inhibitory concentration S. mutans: liquid culture, static growth, 37° C., 20 hours, 96 well microtiter plates.
Description: as §1, §2, §3

For `CCCCCCCCCCCCCCCC[n+]1ccccc1.CCCCCCCCCCCCCCCC[n+]1ccccc1.[Cl][Zn-2]([Cl])([Cl])[Cl]` [(CP)2ZnCl4, cetylpyridinium tetrachlorozincate], the “minimal inhibitory concentration S. enterica” value in assay [1] is 60 mg/L. For the same compound, in assay [2], the “minimal inhibitory concentration S. aureus” value is 6 mg/L. Further, in assay [3], the “minimal inhibitory concentration S. mutans” value turned out to be 6 mg/L. Also, in assay [3] (result in words, comparison with CPC), the “antibacterial activity against S. mutans, compared to CPC” value is listed as “slight improvement”. Besides, in assay [3] (result in words, comparison with zinc chloride or CPC), the “MIC for Streptococcus mutans compared with zinc chloride or CPC” value is given as “lower than that of zinc chloride or CPC”.

Take `[Cl-].[Cl-].[Zn+2]` [ZnCl2, zinc chloride, reference compound]: the “minimal inhibitory concentration S. enterica” value in assay [1] was roughly 300 mg/L. For the same compound, the “minimal inhibitory concentration S. mutans” value in assay [3] was roughly 65 mg/L.
